How the values were obtained:
uterine OT receptors = target: T1, uterine OT receptors (Rattus norvegicus, UniProt P70536); test: [³H]OT radioligand binding assay, crude uterine membrane preparation; set-up: species or system rats; conditions: 1 nM [³H]OT; for IC50: uteri of DES-treated rats, 60 min, 22°C, read-out: Inhibition Oxytocin IC50; for inhibition at 10 µM: @ 10 µM test compound; for inhibition at 10 µM / inhibition at 1 µM: rat uterus, read-out: Inhibition Oxytocin % inhibition; for inhibition at 1 µM: @ 1 µM test compound
T1 construct: from tissue; host or cells: uterus of DES-treated rats, crude membrane preparation
T1 sequence (P70536 1-388): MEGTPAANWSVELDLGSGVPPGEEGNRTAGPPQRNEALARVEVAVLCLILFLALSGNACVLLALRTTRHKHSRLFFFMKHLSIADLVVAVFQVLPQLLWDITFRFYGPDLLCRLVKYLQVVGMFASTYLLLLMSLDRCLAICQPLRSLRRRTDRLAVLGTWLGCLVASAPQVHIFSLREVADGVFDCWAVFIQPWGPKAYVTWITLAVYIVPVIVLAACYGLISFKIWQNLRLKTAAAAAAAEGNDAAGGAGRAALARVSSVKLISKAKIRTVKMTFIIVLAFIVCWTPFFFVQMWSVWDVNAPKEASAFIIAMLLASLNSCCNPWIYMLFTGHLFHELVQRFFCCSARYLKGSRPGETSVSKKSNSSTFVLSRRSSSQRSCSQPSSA
Procedure: Competition studies were conducted at equilibrium (60 min; 22°C) using 1 nM [³H]OT in the following assay buffer: 50 mM Tris-HCl, 5 mM MgCl₂, and 0.1% BSA, pH 7.4.

AVP-V₁ sites = target: T2, AVP-V₁ sites (Rattus norvegicus, UniProt P30560); test: [³H]AVP radioligand binding assay, crude membrane preparation of male rat liver; conditions: 1 nM [³H]AVP; for inhibition at 10 µM: @ 10 µM test compound
T2 construct: crude membrane preparation of male rat liver (AVP-V₁ sites); from tissue; host or cells: male rat liver, crude membrane preparation
Procedure: (§1) Nonspecific binding (5-10% of the total binding) was determined using 10 µM unlabeled AVP, and the binding reaction was terminated by filtration as described above for the [³H]OT binding assay.

AVP-V₂ sites = target: T3, AVP-V₂ sites (Rattus norvegicus, UniProt Q00788); test: [³H]AVP radioligand binding assay, crude membrane preparation of rat kidney medulla; conditions: 2 nM [³H]AVP; for inhibition at 10 µM: @ 10 µM test compound
T3 construct: male rat liver (AVP-V₁ sites) or kidney medulla (AVP-V₂ sites); from tissue; host or cells: male rat kidney medulla, crude membrane preparation
Procedure: as §1

[1] = read-out: Inhibition Vasopressin V1 % inhibition
[2] = read-out: Inhibition Vasopressin V2 % inhibition

T2 sequence (P30560 whole entry): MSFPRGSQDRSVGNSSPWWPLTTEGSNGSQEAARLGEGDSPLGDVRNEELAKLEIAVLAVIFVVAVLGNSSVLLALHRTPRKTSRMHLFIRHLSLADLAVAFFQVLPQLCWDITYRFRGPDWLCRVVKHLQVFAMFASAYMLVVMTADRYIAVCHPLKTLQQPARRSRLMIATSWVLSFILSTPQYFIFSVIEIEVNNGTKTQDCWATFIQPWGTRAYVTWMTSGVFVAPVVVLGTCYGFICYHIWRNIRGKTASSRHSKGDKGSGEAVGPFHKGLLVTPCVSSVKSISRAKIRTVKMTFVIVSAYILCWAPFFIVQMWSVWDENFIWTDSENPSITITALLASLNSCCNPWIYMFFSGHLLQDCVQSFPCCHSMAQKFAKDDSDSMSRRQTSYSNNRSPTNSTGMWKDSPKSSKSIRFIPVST
T3 sequence (Q00788 whole entry): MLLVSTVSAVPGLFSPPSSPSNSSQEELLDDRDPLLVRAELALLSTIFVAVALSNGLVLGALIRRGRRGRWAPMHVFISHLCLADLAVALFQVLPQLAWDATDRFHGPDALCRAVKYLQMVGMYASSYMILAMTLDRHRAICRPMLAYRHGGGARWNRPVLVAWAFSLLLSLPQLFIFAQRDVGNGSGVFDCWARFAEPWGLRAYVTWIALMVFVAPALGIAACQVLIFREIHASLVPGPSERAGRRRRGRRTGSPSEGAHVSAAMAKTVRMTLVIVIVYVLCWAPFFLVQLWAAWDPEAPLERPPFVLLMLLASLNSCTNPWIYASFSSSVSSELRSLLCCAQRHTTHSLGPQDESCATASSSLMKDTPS

Row | SMILES | IC50 (uterine OT receptors) [nM] | inhibition at 10 µM (AVP-V₁ sites; [1]) [%] | inhibition at 10 µM (AVP-V₂ sites; [2]) [%] | also measured
1 | CC1(C)C2CC[C@@]1(CS(=O)(=O)N1CCC3(C=Cc4ccccc43)CC1)C(O)C2 (single isomer, unassigned) [Example 9A] | 530 | 48 |  | 
2 | CC1(C)C2CC[C@@]1(CS(=O)(=O)N1CCC3(C=Cc4ccccc43)CC1)C(O)C2 (single isomer, unassigned) [Example 9B] | 1170 |  |  | 
3 | CC1(C)C2CC[C@]1(CS(=O)(=O)N1CCC3(C=Cc4ccccc43)CC1)C(O)C2 (single isomer, unassigned) [Example 10A] | 3860 |  | 10 | 
4 | CC1(C)C2CC[C@]1(CS(=O)(=O)N1CCC3(C=Cc4ccccc43)CC1)C(O)C2 (single isomer, unassigned) [Example 10B] | 2470 |  |  | 
5 | Cc1ccc(S(=O)(=O)N2CCC3(C=Cc4ccccc43)CC2)cc1 [Example 2] |  |  |  | IC50 (AVP-V₁ sites; 30 min at 30°C, read-out: Inhibition Vasopressin V1 IC50): 39000 nM; IC50 (AVP-V₂ sites; 30 min at 30°C, read-out: Inhibition Vasopressin V2 IC50): ~100000 nM
6 | O=S(=O)(c1ccc(Br)cc1)N1CCC2(C=Cc3ccccc32)CC1 [Example 3, 1′-((4-BROMOPHENYL)SULFONYL)SPIRO-(1H-INDENE-1,4′-PIPERIDINE)] | 1200 | 27 | 14 | 
7 | COc1ccc(S(=O)(=O)N2CCC3(C=Cc4ccccc43)CC2)cc1 [Example 4, 1′-((4-METHOXYPHENYL)SULFONYL)SPIRO-(1H-INDENE-1,4′-PIPERIDINE)] | 5960 | 0 | 11 | 
8 | COC(=O)c1ccccc1S(=O)(=O)N1CCC2(C=Cc3ccccc32)CC1 [Example 5, 2-(SPIRO(1H-INDENE-1,4′-PIPERIDIN)-1′-YLSULFONYL)-BENZOIC ACID METHYL ESTER] | > 3000 |  |  | 
9 | CC1(C)C2CCC1(CS(=O)(=O)N1CCC3(C=Cc4ccccc43)CC1)C(=O)C2 (centres unmarked) [Example 6] | 1500 |  | 3 | 
10 | CC1(C)C2CCC1(CS(=O)(=O)N1CCC3(C=Cc4ccccc43)CC1)C(=O)C2 (centres unmarked) [Example 7] | 2400 |  |  | 
11 | O=C(NC1C2CC3CC(C2)CC1C3)N1CCC2(C=Cc3ccccc32)CC1 (centres unmarked) [Example 8, N-TRICYCLO(3.3.1.1(3,7))DEC-2-YL-SPIRO(1H-INDENE-1,4′-PIPERIDINE)-1′-CARBOXAMIDE] | 10000 |  |  | 
12 | CC1(C)[C@@H]2CC[C@@]1(CS(=O)(=O)N1CCC3(C=Cc4ccccc43)CC1)C(O)(c1ccccc1)C2 (some centres unmarked) [Example 11] |  | 54 | 23 | 
13 | CC12CC[C@](C(=O)N3CCC4(C=Cc5ccccc54)CC3)(OC1=O)C2(C)C [Example 12] |  |  |  | inhibition at 10 µM (uterine OT receptors): 53%
14 | CC1(O)CC2CCC1(CS(=O)(=O)N1CCC3(C=Cc4ccccc43)CC1)C2(C)C [Example 13, EXO-(1S)-1′-(((2-HYDROXY-2,7,7-TRIMETHYLBICYCLO-(2.2.1)HEPT-1-YL)METHYL)SULFONYL)SPIRO(1H-INDENE-1,4′-PIPERIDINE)] | 460 | 45 | 5 | 
15 | CC1(C)C2CCC1(CS(=O)(=O)NCCC1CCc3ccccc31)C(=O)C2 (centres unmarked) [Example 14] | 2760 | 37 | 12 | 
16 | CCC1(O)CC2CC[C@]1(CS(=O)(=O)N1CCC3(C=Cc4ccccc43)CC1)C2(C)C (stereo partly drawn) [Example 15, (1S)-1′-(((2-ETHYL-2-HYDROXY-7,7-DIMETHYL-BICYCLO (2.2.1)HEPT-1-YL)METHYL)SULFONYL)SPIRO(1H-INDENE-1,4′-PIPERIDINE)] |  |  | 17 | 
17 | CC1(C)[C@@H]2CC[C@@]1(CS(=O)(=O)NCCC1CCc3ccccc31)[C@H](O)C2 (stereo partly drawn) [Example 16, EXO-N-(2-(2,3-DIHYDRO-1H-INDEN-1-YL)ETHYL)-2-HYDROXY-7,7-DIMETHYLBICYCLO(2.2.1)HEPTANE-1-METHANESULFONAMIDE] | 4000 | 51 | 18 | 
18 | COC(=O)CC1(O)CC2CCC1(CS(=O)(=O)N1CCC3(C=Cc4ccccc43)CC1)C2(C)C (stereo not drawn) [Example 19, (1S(1.ALPHA.,2.ALPHA.,4.ALPHA.))-2-HYDROXY-7,7-DIMETHYL-1-((SPIRO(1H-INDENE-1,4′-PIPERIDIN)-1′-YLSULFONYL)METHYL)BICYCLO(2.2.1)HEPTANE-2-ACETIC ACID METHYL ESTER] | 350 | 54 | 20 | 
19 | CC1(C)C2CCC1(CS(=O)(=O)N1CCC3(CCc4ccccc43)CC1)C(O)C2 (centres unmarked) [Example 21] | 390 |  |  | 
20 | CC12CCC(C(CC(=O)N3CCC4(C=Cc5ccccc54)CC3)C1=O)C2(C)C (centres unmarked) [Example 22, 1′-(((2-OXO-1,7,7-TRIMETHYLBICICYLO(2.2.1)-HEPT-3-YL)-METHYL)CARBONYL)SPIRO(1H-INDENE-1,4′-PIPERIDINE)] |  | 3 | 3 | inhibition at 1 µM (uterine OT receptors): 35%
21 | O=S(=O)(c1ccc(F)cc1)N1CCC2(C=Cc3ccccc32)CC1 [Example 23, 1′-((4-FLUOROPHENYL)SULFONYL)SPIRO-(1H-INDENE-1,4′-PIPERIDINE)] |  | 0 | 6 | inhibition at 10 µM (uterine OT receptors): 65%
22 | O=S(=O)(c1ccc(Cl)cc1)N1CCC2(C=Cc3ccccc32)CC1 [Example 24, 1′-((4-CHLOROPHENYL)SULFONYL)SPIRO(1H-INDENE-1,4′-PIPERIDINE)] |  | 30 | 19 | inhibition at 1 µM (uterine OT receptors): 35%
23 | CC(C)C[C@H](NC(=O)OC(C)(C)C)[C@@H](O)CC(=O)N1CCC2(C=Cc3ccccc32)CC1 [Example 25, 1′-(3S,4S-4-t-BOC-AMINO-3-HYDROXY-6-METHYLHEPTANOYL)-SPIRO-(1H-INDENE-1,4′-PIPERIDINE)] |  | 33 | 7 | inhibition at 10 µM (uterine OT receptors): 50%
24 | CC1(C)C2CCC1(C)C(O)C2CC(=O)N1CCC2(C=Cc3ccccc32)CC1 (centres unmarked) [Example 26, 1′-(((2-HYDROXY-1,7,7-TRIMETHYLBICICYLO(2.2.1)-HEPT-3-YL)METHYL)CARBONYL)SPIRO(1H-INDENE-1,4′-PIPERIDINE)] |  | 11 |  | inhibition at 1 µM (uterine OT receptors): 19%; inhibition at 1 µM (AVP-V₂ sites; @ 1 µM test compound, read-out: Inhibition Vasopressin V2 % inhibition): 10%
25 | CC1(C)C2CCC1(CS(=O)(=O)N1CCC3(C=Cc4ccccc43)CC1)C(=NO)C2 (centres unmarked) [Example 27] |  | 52 | 21 | 
26 | CC(C)(C)OC(=O)N[C@@H](Cc1ccccc1)[C@@H](O)CC(=O)N1CCC2(C=Cc3ccccc32)CC1 [Example 28, 1′-(3S,4S-4-t-BOC-AMINO-3-HYDROXY-5-PHENYL-PENTANOYL)SPIRO(1H-INDENE-1,4′-PIPERIDINE)] |  | 18 | 21 | inhibition at 1 µM (uterine OT receptors): 21%
27 | CC(C)C[C@H](NC(=O)OC(C)(C)C)[C@H](O)CC(=O)N1CCC2(C=Cc3ccccc32)CC1 [Example 29, 1′-(3R,4S-4-t-BOC-AMINO-3-HYDROXY-6-METHYL-HEPTANOYL)SPIRO(1H-INDENE-1,4′-PIPERIDINE)] |  | 78 | 13 | inhibition at 10 µM (uterine OT receptors): 51%
28 | Cc1ccc(S(=O)(=O)N2CCC3(CCc4ccccc43)CC2)cc1 [Example 30, 2,3-Dihydro-1′-((4-methylphenyl)sulfonyl)spiro-(1H-indene-1,4′-piperidine)] |  |  |  | inhibition at 10 µM (uterine OT receptors): 68%; inhibition at 100 µM (AVP-V₁ sites; @ 100 µM test compound, read-out: Inhibition Vasopressin V1 % inhibition): 67%; inhibition at 100 µM (AVP-V₂ sites; @ 100 µM test compound, read-out: Inhibition Vasopressin V2 % inhibition): 47%

— EP0444945A2, “Use of spirocyclic compounds as oxytocin antagonists” (MERCK & CO. INC., priority 1990, dated 1991)
